From PubChem BioAssay (NCI)
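Dose response: 5 concentrations. Exposure: 48 h. Format: 96-well plates. Endpoint: linear interpolation; highest concentration if not reached. TGI: total growth inhibition.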

What was measured:
Test in all cases: NCI anticancer screen, dose series, 48 h
U251 CNS = test system: U251 CNS
CAKI-1 renal = test system: CAKI-1 renal
NCI-H23 lung = test system: NCI-H23 lung
SK-MEL-28 melanoma = test system: SK-MEL-28 melanoma
UACC-62 melanoma = test system: UACC-62 melanoma
COLO 205 colon = test system: COLO 205 colon
RPMI-8226 leukemia = test system: RPMI-8226 leukemia
MDA-MB-435 = test system: MDA-MB-435
SNB-75 CNS = test system: SNB-75 CNS
EKVX NSCLC = test system: EKVX NSCLC
ACHN renal = test system: ACHN renal
MALME-3M melanoma = test system: MALME-3M melanoma
HOP-62 NSCLC = test system: HOP-62 NSCLC
SF-295 CNS = test system: SF-295 CNS
PC-3 prostate = test system: PC-3 prostate
SK-OV-3 ovarian = test system: SK-OV-3 ovarian

Compound	TGI (U251 CNS) [µM]	TGI (CAKI-1 renal) [µM]	TGI (NCI-H23 lung) [µM]	TGI (SK-MEL-28 melanoma) [µM]	TGI (UACC-62 melanoma) [µM]	TGI (COLO 205 colon) [µM]	TGI (RPMI-8226 leukemia) [µM]	TGI (MDA-MB-435) [µM]	TGI (SNB-75 CNS) [µM]	TGI (EKVX NSCLC) [µM]	TGI (ACHN renal) [µM]	TGI (MALME-3M melanoma) [µM]	TGI (HOP-62 NSCLC) [µM]	TGI (SF-295 CNS) [µM]	TGI (PC-3 prostate) [µM]	TGI (SK-OV-3 ovarian) [µM]
O=[N+]([O-])c1nccn1CCCNc1ccnc2cc(Cl)ccc12	> 100	> 7.83	> 100	> 100	> 8.46	> 100	> 100	> 100	> 100	> 100	> 17.8	> 57.3	> 92.4	> 100	> 100	> 100
CC1=NC(=Cc2cccc(Cl)c2)C(=O)N1n1c(-c2ccccc2)nc2ccccc2c1=O		87.6	> 100		> 100	> 100	> 100	> 100	> 100	> 100	52.7	82.1	55.2	> 100	> 100	> 100
O=C1C=CC2(C=C1)O[C@H](Cc1ccccc1)[C@@H](Cc1ccccc1)O2	2.86	2.27	3.48	1.71	4.05	2.99	0.499	3.56	7.23	1.76	0.958	4.77	3.63	5.15	3.34	13.7
O=C1OCC2OC(=O)c3cc(O)c(O)c(O)c3-c3c(O)c(O)c(O)c4c3C(=O)OC(C2OC(=O)c2cc(O)c(O)c(O)c2-c2c1cc(O)c(O)c2O)C1OC(=O)c2c-4c(O)c(O)c(O)c2[C@@H]1C(O)C(O)C(O)C(O)CO (stereo partly drawn)	48.7	26.7	43.5	> 100	36.7	30.4	73.8	21.9		51.1	30.7	38.9	34	43.7	42.7	59
CCCCn1c(N)c(-c2nc3ccccc3o2)sc1=S	33	41	37.6	52.7	31.9	> 100	67.4	38.5		81.8	23.3	40.2	39.9	28.9	> 100	40.8
CC(C)(C)OC(=O)N/N=C(/N)Cc1ccc(Cl)cc1	> 100	> 100		> 100	> 100	> 100		> 100	> 100	> 100	> 100	> 100	> 100	> 100	> 100	> 100
COc1ccc(C2SCC(=O)N2c2ccc(-c3ccc(-n4c(-c5ccccc5)nc5ccccc5c4=O)cc3)cc2)cc1OC (stereo not drawn)	> 100	> 100	> 100	> 100	> 100	> 100	> 100	> 100	> 100	> 100		> 100	37.6	33.5	> 100	> 100
CC1=NN(C(=O)c2ccncc2)C(=O)C1	> 100	> 100	> 100	> 100	> 100	> 100		> 100	> 100	> 100	> 100	> 100	> 100	> 100	> 100	> 100
CCOC(=O)C1=NOC2(C=C(Br)C(=O)C(Br)=C2)C1	26.3	2.88	9.41	24.7	8.54	2.7	2.56	3.49	33.4	5.45	2.25	1.25	16.2	32.4	5.31	21.1
CC1=NNC(=O)C1C1CC(c2c[nH]c3ccccc23)=NNC1=O (stereo not drawn)	> 100	> 100	> 100	> 100	> 100	> 100	> 100	> 100	> 100	> 100	> 100	> 100	> 100	> 100	> 100	> 100
CN(C)c1ccc(NN=C2SC(=Nc3ccccc3)C(=Nc3ccccc3)S2)cc1	> 100	> 100	> 100	> 100	> 100	> 100	> 100	> 100	> 100	> 100	> 100	> 100	> 100	> 100	> 100	> 100
O=C(NC1=C(Cl)C(=O)c2ccccc2C1=O)c1ccc(F)cc1	12.2		13.7	18.4	2.85	8.33	> 100	14.2	22.1	78.9	4.85	3.73	26.8	13.8	10.7	
Cc1cc(S(=O)(=O)Nc2nc3ccccc3nc2-c2cccc([N+](=O)[O-])c2)c(S)cc1Cl	38.6	39.4	33.7	32.9	31.8	31.5	64.7	41		54.4	64.3	37.3	39.2	59.8	50.8	34
COc1c(Br)cc2c(c1OC)C(Br)CCC(Br)(Br)C2=O (stereo not drawn)	5.91	8.3	3.71	8.88	13.1	4.1	6.06	3.62	22.2	14.6	5.21	10.8	4.81	6.77	4.03	10.5
NC(N)=NCCCC(NC(=O)c1cccc2c(=O)c3ccccc3[nH]c12)C(=O)O (stereo not drawn)	> 100		> 100	> 100	> 100	> 100	> 100	> 100	> 100	> 100	> 100	> 100	> 100	> 100	> 100	> 100
